# Reference: ChEMBL document CHEMBL4476873, “Substituted urea depsipeptide analogs as activators of the clpp endopeptidase” (2018)
# pEC50, pIC50: −log10 of the molar value.
# Assays:
# Staphylococcus aureus [1] = experiment: Antimicrobial activity against Staphylococcus aureus USA300 deficient in ClpP incubated overnight under aerobic condition by microbroth dilution method; assay type: functional
# Staphylococcus aureus [2] = experiment: Antimicrobial activity against Staphylococcus aureus USA300 incubated overnight under aerobic condition by microbroth dilution method; assay type: functional
# Staphylococcus aureus [3] = experiment: Antimicrobial activity against Staphylococcus aureus NRS70 incubated overnight under aerobic condition by microbroth dilution method; assay type: functional
# Staphylococcus aureus [4] = experiment: Antimicrobial activity against Staphylococcus aureus ATCC 29213 incubated overnight under aerobic condition by microbroth dilution method; assay type: functional
# Vero = experiment: Cytotoxicity in African green monkey Vero cells assessed as reduction in cell viability incubated for 72 hrs by cell-titer-Glo luminescent cell viability assay; assay type: cell-based; conditions: Chlorocebus sabaeus
# [5] = target: T1, ATP-dependent Clp protease proteolytic subunit (Staphylococcus aureus (strain NCTC 8325), UniProt Q2G036); experiment: Activation of Staphylococcus aureus ClpP using BODIPY-FL-casein as substrate incubated for 30 mins by Enz-Check protease assay
# T1 sequence (Q2G036 whole entry): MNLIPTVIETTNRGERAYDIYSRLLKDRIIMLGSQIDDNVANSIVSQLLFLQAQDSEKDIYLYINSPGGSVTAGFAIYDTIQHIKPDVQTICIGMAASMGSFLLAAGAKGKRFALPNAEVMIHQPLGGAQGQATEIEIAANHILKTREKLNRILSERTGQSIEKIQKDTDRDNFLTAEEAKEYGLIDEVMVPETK
# Streptococcus pyogenes = experiment: Antimicrobial activity against Streptococcus pyogenes ATCC 700294 incubated overnight under aerobic condition by microbroth dilution method; assay type: functional
# Streptococcus pneumoniae = experiment: Antimicrobial activity against Streptococcus pneumoniae R6 incubated overnight under aerobic condition by microbroth dilution method; assay type: functional
# Bacillus subtilis = experiment: Antimicrobial activity against Bacillus subtilis ATCC 23857 incubated overnight under aerobic condition by microbroth dilution method; assay type: functional
compound,measurement,setting,value
C[C@@H]1NC(=O)[C@H](C)N(C)C(=O)[C@@H]2CCCN2C(=O)[C@@H](NC(=O)[C@H](Cc2cc(F)cc(F)c2)NC(=O)Nc2ccc(OC(F)(F)F)cc2)[C@H](C)OC(=O)[C@@H]2CCCN2C1=O,MIC,Staphylococcus aureus [1],100 µM
same,MIC,Staphylococcus aureus [2],0.2 µM
same,MIC,Staphylococcus aureus [3],0.2 µM
same,MIC,Staphylococcus aureus [4],0.2 µM
Cc1ccc(NC(=O)N[C@@H](Cc2cc(F)cc(F)c2)C(=O)N[C@@H]2C(=O)N3C[C@H](O)C[C@H]3C(=O)N(C)[C@@H](C)C(=O)N[C@@H](C)C(=O)N3C[C@@H](C)C[C@H]3C(=O)O[C@H]2C)cc1,MIC,Staphylococcus aureus [1],> 200 µM
same,pIC50,Vero,< 4.00
same,pEC50,[5],6.43
COc1cccc(NC(=O)N[C@@H](Cc2ccccc2)C(=O)N[C@H]2COC(=O)[C@@H]3C[C@@H](C)CN3C(=O)[C@H](C)NC(=O)[C@@H]3CCCCN3C(=O)[C@@H]3CCCN3C2=O)c1,MIC,Staphylococcus aureus [3],3.13 µM
same,MIC,Staphylococcus aureus [4],3.13 µM
C[C@H]1C[C@H]2C(=O)OC[C@H](NC(=O)[C@H](Cc3cc(F)cc(F)c3)NC(=O)Nc3ccc4c(c3)OCO4)C(=O)N3CCC[C@H]3C(=O)N3CCCC[C@H]3C(=O)N[C@@H](C)C(=O)N2C1,MIC,Staphylococcus aureus [2],3.1 µM
same,MIC,Staphylococcus aureus [4],3.1 µM
CCc1ccc(NC(=O)N[C@@H](Cc2cc(F)cc(F)c2)C(=O)N[C@@H]2C(=O)N3CCC[C@H]3C(=O)N(C)[C@@H]([C@H](C)O)C(=O)N[C@@H](C)C(=O)N3C[C@@H](C)C[C@H]3C(=O)O[C@H]2C)cc1,MIC,Staphylococcus aureus [1],100 µM
same,pIC50,Vero,4.47
C[C@H]1C[C@H]2C(=O)O[C@@H](C)[C@H](NC(=O)[C@H](Cc3cc(F)cc(F)c3)NC(=O)Nc3ccc(OC(F)(F)F)cc3)C(=O)N3CCC[C@H]3C(=O)N(C)[C@@H]([C@H](C)O)C(=O)N[C@@H](C)C(=O)N2C1,pIC50,Vero,4.60
Cc1ccc(NC(=O)N[C@@H](Cc2cc(F)cc(F)c2)C(=O)N[C@H]2COC(=O)[C@@H]3C[C@@H](F)CN3C(=O)[C@H](C)NC(=O)[C@@H]3CCCCN3C(=O)[C@@H]3CCCN3C2=O)cc1,MIC,Staphylococcus aureus [1],> 200 µM
Cc1ccc(NC(=O)N[C@@H](Cc2cc(F)cc(F)c2)C(=O)N[C@H]2COC(=O)[C@@H]3CC(C)(C)CN3C(=O)[C@H](C)NC(=O)[C@@H]3CCCCN3C(=O)[C@@H]3CCCN3C2=O)cc1,MIC,Staphylococcus aureus [1],100 µM
C[C@H]1C[C@H]2C(=O)O[C@@H](C)[C@H](NC(=O)[C@H](Cc3cc(F)cc(F)c3)NC(=O)Nc3ccc(OC(F)(F)F)cc3)C(=O)N3C[C@H](O)C[C@H]3C(=O)N(C)[C@@H](C)C(=O)N[C@@H](C)C(=O)N2C1,MIC,Staphylococcus aureus [1],100 µM
same,MIC,Staphylococcus aureus [3],0.1 µM
same,MIC,Staphylococcus aureus [4],0.1 µM
C[C@H]1C[C@H]2C(=O)OC[C@H](NC(=O)[C@H](Cc3ccccc3)NC(=O)Nc3ccc(OC(F)(F)F)cc3)C(=O)N3CCC[C@H]3C(=O)N3CCCC[C@H]3C(=O)N[C@@H](C)C(=O)N2C1,MIC,Staphylococcus aureus [3],0.4 µM
same,MIC,Staphylococcus aureus [4],0.4 µM
CCc1ccc(NC(=O)N[C@@H](Cc2cc(F)cc(F)c2)C(=O)N[C@@H]2C(=O)N3CCC[C@H]3C(=O)N(C)[C@@H]([C@H](C)O)C(=O)N[C@@H](C)C(=O)N3C[C@H](C)C[C@H]3C(=O)O[C@H]2C)cc1,MIC,Staphylococcus aureus [1],100 µM
same,pIC50,Vero,4.60
Cc1ccc(NC(=O)N[C@@H](Cc2cc(F)cc(F)c2)C(=O)N[C@@H]2C(=O)N3CCC[C@H]3C(=O)N3CCOC[C@H]3C(=O)N[C@@H](C)C(=O)N3C[C@H](C)C[C@H]3C(=O)O[C@H]2C)cc1,MIC,Staphylococcus aureus [1],> 200 µM
same,MIC,Staphylococcus aureus [4],0.003 µM
same,MIC,Streptococcus pyogenes,0.02 µM
same,MIC,Streptococcus pneumoniae,0.002 µM
C[C@H]1C[C@H]2C(=O)O[C@@H](C)[C@H](NC(=O)[C@H](Cc3cc(F)cc(F)c3)NC(=O)Nc3ccc(OC(F)(F)F)cc3)C(=O)N3CCC[C@H]3C(=O)N(C)[C@@H](C)C(=O)N[C@@H](C)C(=O)N2C1,MIC,Staphylococcus aureus [1],25 µM
same,MIC,Staphylococcus aureus [2],0.1 µM
same,MIC,Bacillus subtilis,0.01 µM
same,MIC,Staphylococcus aureus [3],0.05 µM
same,MIC,Staphylococcus aureus [4],0.05 µM
same,MIC,Streptococcus pyogenes,0.23 µM
O=C(N[C@H](CO)[C@H](O)c1ccc([N+](=O)[O-])cc1)C(Cl)Cl [CHLORAMPHENICOL],MIC,Staphylococcus aureus [2],3.1 µM
same,MIC,Staphylococcus aureus [3],3.1 µM
CN[C@@H]1[C@H](O)[C@H](NC)[C@H]2O[C@@]3(O)C(=O)C[C@@H](C)O[C@H]3O[C@@H]2[C@H]1O [SPECTINOMYCIN],MIC,Staphylococcus aureus [2],50 µM
same,MIC,Staphylococcus aureus [4],50 µM
Cc1ccc(NC(=O)N[C@@H](Cc2cc(F)cc(F)c2)C(=O)N[C@H]2COC(=O)[C@@H]3C[C@H](F)CN3C(=O)[C@H](C)NC(=O)[C@@H]3CCCCN3C(=O)[C@@H]3CCCN3C2=O)cc1,MIC,Staphylococcus aureus [1],> 200 µM
